System: gastric mucosa of rat
Experiment: Test for investigating irritation of gastric mucosa in rat
Type: in vivo, Wistar rats
Settings: oral after fasting 18 hrs, dose 2 g/kg BW, stomach observed 1 hour after administration
Experimental: Five male 10-week old Wistar rats having a body weight of about 200 g (Japan SLC, Inc.) as one test group were subjected to tests by administration. […] The amount of the triglyceride administered was 2 g per kg of body weight. After placing at rest for 1 hour following the administration, an incision was made in the abdomen under anesthesia, and the stomach was extirpated. Then, the extirpated stomach was incised along the greater curvature, and the gastric mucosa was washed with physiological saline and visually observed, with use of a loupe as needed. It should be noted that evaluation in connection with the irritation of gastric mucosa was made in accordance with a method described in a document (Yakugaku Zasshi 89 (8): 1114-1118, 1978). The criteria of evaluation are shown below.
(−): Nine or less areas of patchy redness found.
(+): Ten or more areas of patchy redness found, and sum total of each length of erosion being no greater than 2 mm.
(++): Twenty or more areas of patchy redness found, and sum total of each length of erosion being no greater than 10 mm.
(+++): Sum total of each length of ulcer, or erosion being no less than 10 mm.
It is to be noted that when evaluation was made as (−), the number of areas of patchy redness was counted.

## CCO [Positive Control Group, ethanol]
  Irritation of gastric mucosa: (+++) (Sum total of each length of ulcer, or erosion being no less than 10 mm.)

— patent US10383838B2, “Concentrated liquid diet” (The Nisshin OilliO Group, Ltd., priority 2008, dated 2019)
